Like-named read-outs stand apart in the source and are kept apart here.
Tests used:
[1] = test system: lettuce; assay: Phytotoxic effect on lettuce under different conditions of illumination; assay type: in vivo, Lactuca sativa; conditions: 1 mM; light versus darkness; 7 days
Protocol: Bioassays were carried out with lettuce in Petri dishes using the commercial standards of each compound. Lettuce seeds were incubated with 4 mL of an aqueous solution of compounds or acetochlor at 1 mM. Lettuce growth was measured at 7 days of incubation.
The results of this test are shown in FIG. 14 where the Left column (diagonal stripes)=Light and the Right column (in black)=Darkness. Acetochlor was included as a reference of pre-emergent herbicide and to get the highest herbicidal effect, all compounds were tested at 1 mM. Data represent means of three replicates±SD. Different letters above the bars indicate significant differences between treatments (p<0.05).

[2] = test system: cucumber cotyledon disks; assay: Detection and measurement of reactive oxygen species (DCFDA); assay type: cell-based; conditions: 300 μM; for ROS levels: 16 h darkness then high light intensity 5 h; for ROS generation: complete darkness for 30 h
Protocol: ROS cellular localization was determined by confocal microscopy using the fluorescent probe 2′,7′-dichlorofluorescein diacetate (DCFDA). Cucumber cotyledon disks (1 cm) were treated as described for the electrolyte leakage assay. Five disks were placed in 5 cm-Petri plates and exposed to different dilutions of compounds of formulas III and IV (0, 100 and 300 μM). Disks were incubated in darkness for 16 h before exposure to high light intensity for 5 h, or in darkness for 30 h. As positive control, disks were exposed to the same solvent as treated tissues but with 10 mM hydrogen peroxide (H2O2) for 30 min in the light. After each treatment, they were vacuum-infiltrated in the dark with 50 μM DCFDA in 10 mM Tris-HCl pH 7.5, and ROS were visualized in an Eclipse TE-2000-E2 Nikon confocal microscope with excitation at 488 nm and emission at 515/530 nm. Green fluorescence intensities were quantified using the image processing package Fiji of ImageJ software.

[3] = test system: onion root tips; assay: Cell death determination by Evans blue staining, root tips; assay type: cell-based, Allium cepa; conditions: 4 days; for increase in relative cell death: 100 μM; for increase in relative cell death compared to 100 μM: 300 μM
Protocol: To evaluate cell death in roots, onion seeds were germinated and treated as described in postemergence assay with weed species. Onion seedlings were exposed to different doses of compounds of formulas III and IV (0, 100 and 300 μM) during 4 days. For the experiment with leaf disks 3-weeks-cucumber plants were used. One disk (1 cm) was placed in each well of a 12-well plate together with 1 mL of a 2% w/v sucrose/1 mM MES, pH 6.5 solution containing each of the compounds tested at the appropriate concentration (0, 100 or 300 μM) and acetone (1% v/v). Each assay was performed with leaf disks from different plants. Plates were sealed with Parafilm and incubated in a growth chamber at 21-27° C. with a 16/8 h light/dark cycle for 7 days.
Cell death was determined by Evans blue staining.^26 Root tips (5-mm sections) and leaf disks were incubated for 30 min in 0.25% w/v Evans blue aqueous solution at 25° C. on a rotary shaker. After staining, unbound dye was removed by extensive washing with deionized water. Three root tips (3 replicates) or one leaf disk (4 replicates) were ground in a tissue grind tube with 500 μL 1% w/v sodium dodecyl sulfate (SDS). The resulting suspension was centrifuged for 20 min at 20,000 g and the supernatant was used for dye quantification by monitoring the absorbance at 600 and 680 nm. Relative cell death was expressed as A600 for root tips and A600/A680 ratios for leaf disks.

[4] = test system: ryegrass (Lolium multiflorum); assay: Dose-response bioassay with ryegrass; assay type: in vivo; conditions: 168 h, 7 days
Protocol: (§1) A filter paper and 5 lettuce or 10 mg of creeping bentgrass seeds were placed in each well of a 24-well plate. Stock solutions (10×) of test compounds were prepared in acetone. 180 μl of distilled water were added to each well together with 20 μl of stock solution or acetone in solvent control. Final concentration of acetone was 10% v/v. Plates were sealed with Parafilm, and incubated at 26° C. in a growth chamber set at 173 μmol m^−2 s^−1 continuous photosynthetically active radiation. Phytotoxic activity was qualitatively evaluated by visually comparing germination in each well with solvent control at 7 days. A qualitative estimation of phytotoxicity was obtained by using a rating scale of 0 to 5, where 0 was no effect, and 5 was no germination of seeds. This procedure was also used for testing the phytotoxicity of pure compounds on ryegrass. On this experiment 12-well plates were used. 10 seeds were placed per well and final volume was 300 μl in each one. During dose-response bioassays used for IC50 determination, germination percentage and length of plants were measured at 7 days in order to determine the concentration required for 50% germination and growth inhibition (IC50). All experiments were done in triplicate.
Using method described in Example 1, compounds of Formula III and IV above were tested against lettuce and ryegrass.
The percentage of germination and length of plants were determined at 7 days. Data represents means of three replicates±SD. The IC50 values, for both germination and growth inhibition by compounds III and IV on lettuce and ryegrass, were obtained from estimated parameters in the regression curves.
Statistical Analysis. Data from dose-response experiments were analyzed by a log-logistic model^37-38 using the dose-response curve module^39 of R software version 2.2.1.^40 Concentrations required for 50% germination or growth inhibition relative to control (IC50 values) were obtained from estimated parameters in the regression curves. The standard error (SE) of each estimation is provided. Data from phytotoxicity bioassays in the laboratory and greenhouse, ROS and cell death quantifications were analyzed by ANOVA using the InfoStat statistical software version 2015,^41 and Scheffe's test was employed to compare the means at α=0.05.

[5] = test system: creeping bentgrass (A. stolonifera); assay: Germination bioassay with creeping bentgrass; assay type: in vivo, Agrostis stolonifera; parameters: key to Phytotoxicity at day 7, Creeping bentgrass: 0 = no effect; 5 = no growth or germination; conditions: for Phytotoxicity at day 7, Creeping bentgrass: 1 mM, 24-well plates, rating scale of 0 to 5; for inhibition at 1000 µg/mL: Agrostis stolonifera, 168 h, creeping bentgrass, 1 mg/mL, day 7; for creeping bentgrass germination: fractions at 1 mg/mL
Protocol: DCM extract of flowers of A. visnaga (1.6 g) was divided in two 800 mg halves and each one was subjected to column chromatography using an Isolera One system (Biotage), equipped with UV detector (302 and 365 nm) and automatic fraction collector. Separation was performed by normal-phase chromatography column using a SNAP Cartridge KP-Sil (37×157 mm, 50 μm irregular silica, 100 g, Biotage) and a pre-packaged SNAP Samplet Cartridge KP-Sil (37×17 mm, Biotage). A full gradient of hexane:ethyl acetate was used for elution, from 100:0 to 0:100 over 3000 ml. Flow was 40 ml/min and 25 ml fractions were collected. Equal fractions were combined based on similarities on their TLC and chromatogram profiles providing nineteen fractions named I to XIX. All fractions were evaluated for their phytotoxicity on germination bioassay of lettuce (L. sativa) and creeping bentgrass (A. stolonifera).
as §1

[6] = test system: green alga Chlamydomonas reinhardtii; conditions: equimolar concentrations and equal UV-A doses; cited from earlier work
[7] = read-out: IC50(μM) ± SE to inhibit germination
[8] = read-out: IC50(μM) ± SE to inhibit growth

SMILES | light dependence of phytotoxicity or herbicidal activity [1] | ROS levels [2] | ROS generation [2] | increase in relative cell death [3] | increase in relative cell death compared to 100 μM [3] | IC50 [4, 7] | IC50 [4, 8] | Phytotoxicity at day 7, Creeping bentgrass [5] | inhibition at 1000 µg/mL [5] | creeping bentgrass germination [5] | phototoxicity and photomutagenicity compared with bergapten [6]
COc1c2occc2c(OC)c2c(=O)cc(C)oc12 [Formula III, 4,9-dimethoxy-7-methyl-5H-furo[3,2-g]chromen-5-one] | not a light-dependent process | significantly higher than in the control | not detected | two-fold | two-fold | 637 ± 112 µM | 244 ± 37 µM | 5 | 100% | completely inhibited | –
COc1c2ccoc2cc2oc(C)cc(=O)c12 [Formula IV, 4-methoxy-7-methyl-5H-furo[3,2-g]chromen-5-one] | not a light-dependent process | significantly higher than in the control | not detected | two-fold | two-fold | 502 ± 115 µM | 214 ± 23 µM | 5 | 100% | completely inhibited | much less phototoxic and photomutagenic than bergapten
